Results on 16 compounds are retold here after the Kinase Knowledgebase extract (Sharma et al. 2016).

Structures are written as SMILES. Some results are limits rather than exact numbers.

In this assay the target is EGFR (murine) (UniProt P00533). The following applies: nih3t3/c7.
Chain of EGFR (murine) (P00533 whole entry, looked up): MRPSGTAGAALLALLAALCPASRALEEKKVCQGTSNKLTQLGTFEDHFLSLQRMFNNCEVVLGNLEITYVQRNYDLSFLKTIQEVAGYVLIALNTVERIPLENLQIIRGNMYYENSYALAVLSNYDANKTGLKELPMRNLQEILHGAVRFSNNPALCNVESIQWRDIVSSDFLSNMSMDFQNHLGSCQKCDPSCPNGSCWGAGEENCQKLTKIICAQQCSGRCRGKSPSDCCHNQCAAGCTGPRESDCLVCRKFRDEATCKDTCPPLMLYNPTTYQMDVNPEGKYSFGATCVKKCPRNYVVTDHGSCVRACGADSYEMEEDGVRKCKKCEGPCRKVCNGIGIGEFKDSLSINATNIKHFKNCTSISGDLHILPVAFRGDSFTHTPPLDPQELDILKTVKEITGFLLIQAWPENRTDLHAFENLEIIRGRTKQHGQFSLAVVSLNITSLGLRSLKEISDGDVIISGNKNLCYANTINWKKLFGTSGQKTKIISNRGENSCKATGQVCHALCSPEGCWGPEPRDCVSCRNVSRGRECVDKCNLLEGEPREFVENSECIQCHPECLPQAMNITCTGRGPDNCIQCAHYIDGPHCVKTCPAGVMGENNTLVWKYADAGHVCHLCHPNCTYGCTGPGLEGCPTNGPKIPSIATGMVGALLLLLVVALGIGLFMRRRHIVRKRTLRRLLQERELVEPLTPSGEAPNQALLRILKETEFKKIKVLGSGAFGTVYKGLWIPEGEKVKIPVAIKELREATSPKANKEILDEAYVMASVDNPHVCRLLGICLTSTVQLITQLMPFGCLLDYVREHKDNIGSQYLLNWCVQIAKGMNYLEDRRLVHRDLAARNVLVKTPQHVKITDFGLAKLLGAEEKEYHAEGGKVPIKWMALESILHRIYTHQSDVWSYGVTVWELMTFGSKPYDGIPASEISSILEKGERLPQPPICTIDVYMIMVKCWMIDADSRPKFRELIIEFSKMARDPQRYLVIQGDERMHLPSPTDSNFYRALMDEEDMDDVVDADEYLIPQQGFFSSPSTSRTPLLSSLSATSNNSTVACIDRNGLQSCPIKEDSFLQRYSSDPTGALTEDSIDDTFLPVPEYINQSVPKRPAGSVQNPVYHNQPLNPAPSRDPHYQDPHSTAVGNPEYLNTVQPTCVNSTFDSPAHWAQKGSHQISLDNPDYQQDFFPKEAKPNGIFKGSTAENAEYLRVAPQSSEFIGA

Compound `CCOC(=O)CCc1c(C(=O)OCC)[nH]c(/C=C2\C(=O)Nc3ccccc32)c1CC(=O)OCC` gave an IC50 greater than 10 µM.

Consider `Cc1[nH]c(/C=C2\C(=O)Nc3ncccc32)c(C)c1CCC(=O)O`, for which the IC50 was greater than 50 µM.

`COC(=O)CCc1c[nH]c(/C=C2\C(=O)Nc3ccccc32)c1C` showed an IC50 greater than 100 µM.

The compound `Cc1c(CCC(=O)O)c[nH]c1/C=C1\C(=O)Nc2ncccc21` gave an IC50 greater than 25 µM.

As for `COC(=O)Cc1c(Cl)[nH]c(/C=C2\C(=O)Nc3ccccc32)c1C(=O)OC`, the IC50 was greater than 50 µM.

The compound `CCOC(=O)c1c(C)[nH]c(/C=C2\C(=O)Nc3ccc(Br)cc32)c1C` gave an IC50 greater than 25 µM.

As to `CCc1c(/C=C2\C(=O)Nc3ccccc32)[nH]c(C(=O)O)c1C`, the IC50 was greater than 100 µM.

`CCOC(=O)c1c(C)[nH]c(/C=C2\C(=O)Nc3ccc(NC(=O)c4ccc(C(=O)OC)cc4)cc32)c1C` gave an IC50 greater than 10 µM.

Take `Cc1c(/C=C2\C(=O)Nc3ncccc32)[nH]c2c1CCCC2`: the IC50 is 38.2 µM.

As for `O=C1Nc2ncccc2/C1=C/c1cc2c([nH]1)CCCC2`, the IC50 is 29.9 µM.

Regarding `Cc1c[nH]c(/C=C2\C(=O)Nc3ccccc32)c1CC(=O)O`, the IC50 was greater than 100 µM.

The compound `CCOC(=O)c1[nH]c(/C=C2\C(=O)Nc3ccccc32)c(C(C)=O)c1C` showed an IC50 greater than 10 µM.

Regarding `O=C(O)CCc1c(/C=C2\C(=O)Nc3ncccc32)[nH]c2c1CCCC2`, the IC50 came to 12.5 µM.

On to `COC(=O)CCc1c[nH]c(/C=C2\C(=O)Nc3cc(OC)c(OC)cc32)c1C`, for which the IC50 was greater than 50 µM.

The compound `Cc1cc(C)c(/C=C2\C(=O)Nc3ncccc32)[nH]1` gave a half-inhibitory concentration (IC50) greater than 100 µM.

`CC(=O)c1[nH]c(/C=C2\C(=O)Nc3ccccc32)c(C)c1C` gave an IC50 greater than 100 µM.

The IC50 is the point on the concentration scale where inhibition reaches its midpoint. A high value points to a need for much substance.
